*: point of attachment. Cbz = O=C(OCc1ccccc1)*; CH2F = FC*
System: 3CL^pro of SARS-CoV-2
Conditions: pH 7.6

Substance: Cbz-SAVLD(OMe)-CH2F [compound 15]
- 3CL^pro protease activity in the presence of PFMK inhibitor (gel-based cleavage of FLAG-His-SAVLQ-nsp9): completely abolished

Source: publication PMC8185805, “An improved method for the incorporation of fluoromethyl ketones into solid phase peptide synthesis techniques” (RSC Advances, 2021)
